System: fungal growth (mold) on wet blue hide
Test: Performance testing in a tannery: wet blue test pieces in mold-infested tropical chamber
Conditions: methyl carbitol-based formulation containing 30% w/w, 0.1% by weight in float (300 ppm active ingredient), chrome tanning of cowhides; 47 wet blue pieces, four weeks in tropical chamber
Experimental: A methyl carbitol-based formulation containing 30% w/w of hexyl chloromethyl cyanodithiocarbimate was tested in a commercial tannery. Eighty-two cowhides were subjected to a standard production run using chrome tanning. The test formulation was added to the float (tanning liquid) at a concentration of 0.1% by weight providing a concentration of 300 ppm of active ingredient hexyl chloromethyl cyanodithiocarbimate. At the completion of the tanning process, five tanned hides (“wet blues”) were chosen randomly. Numerous test pieces (12×14 cm) were cut from the butt, belly, and neck regions of each of the five hides. A total of 47 test pieces of wet blue obtained were coded relative to hide source and position, and each piece was suspended in a tropical chamber. The tropical chamber was a mold-infested humidity chamber designed to severely challenge the test fungicide applied during the tanning process. Each test piece was visually examined on a weekly basis for four weeks for the presence or absence and extent of possible mold growth. […] This is the type of performance desired of a fungicide by the hide tanning industry.

| SMILES | presence or absence and extent of mold growth on test pieces |
| --- | --- |
| CCCCCCSC(=NC#N)SCCl [Cl, —(CH2)5CH3, hexyl chloromethyl cyanodithiocarbimate] | free of fungal growth |

System: Aspergillus niger
Test: Inhibition of growth of Aspergillus niger in liquid MSY medium (96-well microplate, OD 686 nm)
Format: cell-based
Conditions: MSY broth, four days at 28° C. in the dark, complete inhibition = OD≦0.05, test levels given as ppm
Experimental: The antifungal activities of compounds of formula (I) were measured by determining the inhibition of growth of Aspergillus niger in a standard liquid medium. The liquid growth medium is described as a solution of mineral salts+yeast extract (MSY). The MSY broth was prepared as described in ASTM G 21–70^1, and amended with glucose (10 g liter^−1) and yeast extract (1 g liter^−1). An aliquot (250 μL) of sterile medium was dispensed into each test well of a standard 96-well microplate (Corning No. 430247). Stock solutions of test compounds were prepared by dissolving the materials in 9:1 (v/v) solution of acetone:methanol. Appropriate volumes of stock solutions were added to the test wells in order to achieve the desired ppm levels. Each test well (plus controls) was then inoculated with 5 μL of a standardized suspension of Aspergillus niger. The cell suspension was prepared by suspending viable cells from a slant of potato dextrose agar into sterile, deionized water. The suspension was then adjusted to provide OD686=0.28. This density contains approximately 2.5×10^7 CFU mL^−1 (CFU=Colony Forming Units). The microplates were incubated in the dark for four days at 28° C. The optical density for each well at 686 nm was then recorded automatically using a SpectraMax 340 microplate reader (Molecular Devices Corp., Sunnyvale, Calif.). All wells were visually inspected in order to corroborate data from the instrument. […] The results are shown in Table 2. ^1“Standard Practice for Determining Resistance of Synthetic Polymeric Materials to Fungi”,ASTM Standards on Materials and Environmental Microbiology, 1st. Ed., 1987.

| SMILES | Antifungal MIC |
| --- | --- |
| C=CCSC(=NC#N)SCCl [Cl, —CH2CHC═CH2, allyl chloromethyl cyanodithiocarbimate] | 1.0 |
| CCCSC(=NC#N)SCCl [Cl, —(CH2)2CH3, propyl chloromethyl cyanodithioicarbimate] | 0.5 |
| N#CN=C(SCCl)SCc1ccccc1 [Cl, —CH2C6H5, benzyl chloromethyl cyanodithiocarbimate] | 1.0 |
| CCCCCCSC(=NC#N)SCCl [Cl, —(CH2)5CH3, hexyl chloromethyl cyanodithiocarbimate] | 0.2 |
| CC(C)SC(=NC#N)SCCl [Cl, —CH2(CH3)2, isopropyl chloromethyl cyanodithiocarbimate] | 0.5 |

Reference: patent US7157017B2, “Fungicidal compositions and methods using cyanodithiocarbimates” (Buckman Laboratories International, Inc., priority 2003, dated 2007)
